Measured values published in ChEMBL document CHEMBL5029145, “Discovery of AZD8154, a Dual PI3Kγδ Inhibitor for the Treatment of Asthma” (J Med Chem, 2021).
Calls of active or inactive are those of the source. The calls are words filed in the database; no cut-off is given here.

Experiments:
[1] = target: T1, Phosphatidylinositol 4,5-bisphosphate 3-kinase catalytic subunit delta isoform (Homo sapiens, UniProt O00329); experiment: Inhibition of recombinant human PI3Kdelta assessed as reduction in ADP production using Dic8-PIP2 as substrate pre-treated for 15 mins followed by substrate addition measured after 60 mins by ADP-glo assay
T1 sequence (O00329 whole entry): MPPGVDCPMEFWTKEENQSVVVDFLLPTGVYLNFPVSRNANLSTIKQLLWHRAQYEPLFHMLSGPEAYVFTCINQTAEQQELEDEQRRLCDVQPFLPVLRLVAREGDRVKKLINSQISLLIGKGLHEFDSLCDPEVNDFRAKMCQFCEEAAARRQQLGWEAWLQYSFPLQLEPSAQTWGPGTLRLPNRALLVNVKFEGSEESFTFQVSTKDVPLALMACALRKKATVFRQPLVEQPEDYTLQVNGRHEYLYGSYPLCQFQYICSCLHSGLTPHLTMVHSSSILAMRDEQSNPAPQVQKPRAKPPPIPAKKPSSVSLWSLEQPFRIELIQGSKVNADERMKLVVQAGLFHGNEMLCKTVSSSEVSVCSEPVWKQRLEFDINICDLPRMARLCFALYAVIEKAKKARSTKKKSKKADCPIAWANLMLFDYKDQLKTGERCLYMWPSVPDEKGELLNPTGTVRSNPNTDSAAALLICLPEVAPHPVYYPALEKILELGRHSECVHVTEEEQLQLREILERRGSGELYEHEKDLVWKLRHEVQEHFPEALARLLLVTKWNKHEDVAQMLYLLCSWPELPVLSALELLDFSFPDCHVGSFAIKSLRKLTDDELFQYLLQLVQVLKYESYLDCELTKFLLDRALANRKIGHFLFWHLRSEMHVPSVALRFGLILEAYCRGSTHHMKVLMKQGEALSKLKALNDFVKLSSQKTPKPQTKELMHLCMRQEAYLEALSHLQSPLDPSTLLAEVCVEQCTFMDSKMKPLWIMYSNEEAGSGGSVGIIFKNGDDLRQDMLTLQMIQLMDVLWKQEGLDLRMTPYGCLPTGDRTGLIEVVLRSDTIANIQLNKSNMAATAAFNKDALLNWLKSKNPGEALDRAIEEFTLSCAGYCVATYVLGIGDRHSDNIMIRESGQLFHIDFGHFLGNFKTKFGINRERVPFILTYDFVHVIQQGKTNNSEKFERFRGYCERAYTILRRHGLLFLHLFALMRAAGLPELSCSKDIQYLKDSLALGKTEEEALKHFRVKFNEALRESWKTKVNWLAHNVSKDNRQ

[2] = target: Phosphatidylinositol 4,5-bisphosphate 3-kinase catalytic subunit delta isoform/gamma isoform (Homo sapiens) (UniProt P48736+O00329); experiment: Inhibition of PI3kgamma/delta in anti-CD2/3/28-stimulated human PBMC cells derived from asthmatic patient assessed as reduction in IL-5 release pre-incubated for 1 hr followed by anti-CD2/3/28 stimulation measured after 24 hrs by flow cytometry; assay type: cell-based; conditions: time 25.0 hrs
Phosphatidylinositol 4,5-bisphosphate 3-kinase catalytic subunit delta isoform/gamma isoform (Homo sapiens), sequence (P48736 whole entry, looked up, one chain of several, canonical isoform): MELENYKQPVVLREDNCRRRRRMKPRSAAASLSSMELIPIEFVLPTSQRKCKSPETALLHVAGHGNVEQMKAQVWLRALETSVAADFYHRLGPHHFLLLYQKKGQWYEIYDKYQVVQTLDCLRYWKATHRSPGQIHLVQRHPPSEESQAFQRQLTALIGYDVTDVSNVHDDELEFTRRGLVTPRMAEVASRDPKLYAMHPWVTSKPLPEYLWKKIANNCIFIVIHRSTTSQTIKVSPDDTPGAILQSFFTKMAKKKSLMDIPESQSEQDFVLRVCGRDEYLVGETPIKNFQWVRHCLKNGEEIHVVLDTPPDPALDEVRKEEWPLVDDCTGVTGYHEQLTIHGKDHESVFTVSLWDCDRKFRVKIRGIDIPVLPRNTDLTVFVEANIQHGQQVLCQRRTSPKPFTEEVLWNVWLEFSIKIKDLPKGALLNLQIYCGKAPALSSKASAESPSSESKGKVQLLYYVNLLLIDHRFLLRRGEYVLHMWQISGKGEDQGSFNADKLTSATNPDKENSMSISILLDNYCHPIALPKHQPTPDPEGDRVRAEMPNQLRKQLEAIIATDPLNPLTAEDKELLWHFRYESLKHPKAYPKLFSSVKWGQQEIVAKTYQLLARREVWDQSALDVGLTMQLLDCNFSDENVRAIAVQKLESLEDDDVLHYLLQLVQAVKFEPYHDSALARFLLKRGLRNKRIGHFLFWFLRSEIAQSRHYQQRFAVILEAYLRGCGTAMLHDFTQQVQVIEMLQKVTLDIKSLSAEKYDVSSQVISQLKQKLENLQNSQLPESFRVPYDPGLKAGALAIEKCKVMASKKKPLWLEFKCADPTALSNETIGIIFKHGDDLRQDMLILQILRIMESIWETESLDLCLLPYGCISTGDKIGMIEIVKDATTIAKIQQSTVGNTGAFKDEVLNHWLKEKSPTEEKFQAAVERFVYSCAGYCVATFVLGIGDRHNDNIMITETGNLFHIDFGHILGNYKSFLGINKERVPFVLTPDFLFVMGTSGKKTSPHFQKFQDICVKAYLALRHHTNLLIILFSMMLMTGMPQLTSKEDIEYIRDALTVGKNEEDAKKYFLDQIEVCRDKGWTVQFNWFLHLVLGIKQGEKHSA

[3] = Volume of distribution at steady state in rat at 0.5 mg/kg, iv; assay type: ADME, organism-based; conditions: in vivo, read-out: Vdss
[4] = Oral bioavailability in rat at 1.0 mg/kg; assay type: ADME, organism-based; conditions: in vivo
[5] = target: T2, Phosphatidylinositol 3-kinase C2 domain-containing subunit gamma (Homo sapiens, UniProt O75747); experiment: Inhibition of PIK3C2G (unknown origin) assessed as reduction in substrate phosphorylation by FRET Adapta assay
T2 sequence (O75747 whole entry): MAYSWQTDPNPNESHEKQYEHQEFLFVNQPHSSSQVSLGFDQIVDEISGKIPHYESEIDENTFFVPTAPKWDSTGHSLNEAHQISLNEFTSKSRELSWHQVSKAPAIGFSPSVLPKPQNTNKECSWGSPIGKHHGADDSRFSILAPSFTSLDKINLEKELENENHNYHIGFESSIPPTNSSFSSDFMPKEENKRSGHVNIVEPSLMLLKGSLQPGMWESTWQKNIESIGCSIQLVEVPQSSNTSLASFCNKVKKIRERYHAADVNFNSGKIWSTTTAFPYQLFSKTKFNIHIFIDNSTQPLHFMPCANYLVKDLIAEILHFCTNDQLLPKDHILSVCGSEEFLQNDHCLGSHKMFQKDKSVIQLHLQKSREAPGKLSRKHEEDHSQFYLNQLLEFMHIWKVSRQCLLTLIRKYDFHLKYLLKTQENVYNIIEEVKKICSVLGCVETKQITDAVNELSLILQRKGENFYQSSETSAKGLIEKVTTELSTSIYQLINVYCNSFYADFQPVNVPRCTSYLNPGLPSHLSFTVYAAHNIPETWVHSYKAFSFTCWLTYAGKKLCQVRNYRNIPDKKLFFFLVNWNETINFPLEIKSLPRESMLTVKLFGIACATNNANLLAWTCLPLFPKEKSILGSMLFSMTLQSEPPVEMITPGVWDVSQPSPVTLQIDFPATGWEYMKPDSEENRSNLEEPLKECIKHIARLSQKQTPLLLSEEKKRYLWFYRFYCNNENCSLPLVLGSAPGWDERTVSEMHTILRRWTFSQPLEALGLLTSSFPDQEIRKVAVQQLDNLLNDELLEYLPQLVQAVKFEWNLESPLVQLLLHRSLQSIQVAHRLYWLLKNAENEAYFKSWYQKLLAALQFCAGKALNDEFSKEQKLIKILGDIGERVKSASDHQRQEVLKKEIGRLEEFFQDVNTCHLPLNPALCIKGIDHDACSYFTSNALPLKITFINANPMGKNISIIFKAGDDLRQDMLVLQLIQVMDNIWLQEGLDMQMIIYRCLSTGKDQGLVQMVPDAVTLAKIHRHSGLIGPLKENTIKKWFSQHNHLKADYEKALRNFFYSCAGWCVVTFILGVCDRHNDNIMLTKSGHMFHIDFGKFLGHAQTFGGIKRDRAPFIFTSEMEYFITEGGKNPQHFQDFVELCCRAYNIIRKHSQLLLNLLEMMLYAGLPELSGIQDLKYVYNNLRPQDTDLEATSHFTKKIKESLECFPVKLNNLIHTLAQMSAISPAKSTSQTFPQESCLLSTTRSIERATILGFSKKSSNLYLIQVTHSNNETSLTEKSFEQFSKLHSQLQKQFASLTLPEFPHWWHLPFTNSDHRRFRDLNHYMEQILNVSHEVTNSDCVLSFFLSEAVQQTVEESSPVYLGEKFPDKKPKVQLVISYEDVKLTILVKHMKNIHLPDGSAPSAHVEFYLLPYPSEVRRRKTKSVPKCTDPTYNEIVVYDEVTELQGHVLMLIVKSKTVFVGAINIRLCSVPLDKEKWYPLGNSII

[6] = target: Phosphatidylinositol 3-kinase catalytic subunit type 3 (Homo sapiens, UniProt Q8NEB9); experiment: Inhibition of PIK3C3 (unknown origin) assessed as reduction in substrate phosphorylation by FRET Adapta assay
Phosphatidylinositol 3-kinase catalytic subunit type 3, sequence (Q8NEB9 whole entry): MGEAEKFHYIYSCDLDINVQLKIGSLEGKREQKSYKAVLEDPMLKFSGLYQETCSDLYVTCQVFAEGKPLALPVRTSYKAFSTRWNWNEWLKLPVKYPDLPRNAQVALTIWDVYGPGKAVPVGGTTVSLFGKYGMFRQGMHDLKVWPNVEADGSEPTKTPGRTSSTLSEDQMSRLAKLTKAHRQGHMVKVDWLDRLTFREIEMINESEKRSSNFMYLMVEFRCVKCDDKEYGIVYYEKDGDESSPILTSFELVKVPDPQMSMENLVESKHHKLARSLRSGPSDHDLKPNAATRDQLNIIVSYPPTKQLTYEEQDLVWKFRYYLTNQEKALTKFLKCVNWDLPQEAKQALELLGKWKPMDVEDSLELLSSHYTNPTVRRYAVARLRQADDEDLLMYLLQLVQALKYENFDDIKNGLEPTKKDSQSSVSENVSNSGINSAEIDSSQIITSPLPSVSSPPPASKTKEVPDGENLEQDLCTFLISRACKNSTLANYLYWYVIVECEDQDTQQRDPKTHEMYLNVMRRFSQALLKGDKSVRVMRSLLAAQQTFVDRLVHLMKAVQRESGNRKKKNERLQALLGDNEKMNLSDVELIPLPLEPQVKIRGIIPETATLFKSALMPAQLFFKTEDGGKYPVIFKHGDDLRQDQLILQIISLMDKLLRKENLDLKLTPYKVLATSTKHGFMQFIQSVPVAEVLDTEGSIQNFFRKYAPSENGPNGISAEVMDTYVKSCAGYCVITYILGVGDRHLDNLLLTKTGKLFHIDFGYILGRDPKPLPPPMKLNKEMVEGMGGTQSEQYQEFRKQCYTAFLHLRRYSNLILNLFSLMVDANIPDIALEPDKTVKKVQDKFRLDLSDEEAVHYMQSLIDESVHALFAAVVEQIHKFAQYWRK

[7] = test system: Rattus norvegicus; experiment: Antiinflammatory activity in ovalbumin-induced Brown Norway rat assessed as reduction in eosinophil counts in bronchoalveolar lavage at 240 microg/kg inhaled using nebulizer 7 hrs prior to ovalbumin challenge measured after 48 hrs by flow cytometry; assay type: functional, organism-based; conditions: dose 240.0 µg/kg, time 55.0 hrs

- IC50 [1]: 0.000631 µM
- Activity [2]: Active
- Vd [3]: 4 L/kg
- bioavailability [4]: < 4%
- IC50 [5]: 0.0631 µM
- IC50 [6]: 0.501 µM
Structure (SMILES): Cc1nc(Nc2cccc(N3CCCC3=O)n2)sc1-c1cc2c(c(S(C)(=O)=O)c1)C(=O)N([C@@H](C)C1CC1)C2 [AZD-8154]
- Activity [7]: Active
